In assay [1] the target is human mPGES1 (Homo sapiens (Human), UniProt O14684). Briefly: Inhibition activity for human mPGES1 (enzyme assay, PGE2 HTRF). The format is biochemical. Particulars: membrane protein from HEK-293 F transfected with human mPGES1. As for the experimental part: The method described here is used for determining the inhibition activity of the present compounds for human mPGES1.
• 1. PGE2 Assay kit (Cisbio, #62P2APEB) • 2. Prostaglandin H2 (Sigma, #P7867-1MG) • 3. FlexStation3 microplate reader. II. Experimental Procedure • 1. Obtaining the membrane proteins of mPGES1 enzyme
The cell density of HEK-293 F was grown to 6×10^5 per milliliter and was transferred with the plasmid containing human mPGES1 gene by transfection reagent PEI the next day. The cells were continuously cultured for 72 hours at 37° C. with shaking. After centrifuging at 1100 g for 5 minutes, the cells were harvested. After ultrasonication in an ice bath and centrifugation at 5000 g for 10 minutes, the supernatant was obtained. The supernatant was centrifuged at 100000 g for 1 hour to obtain a precipitate. The precipitate was resuspended with storage buffer containing 10% glycerinum, subpackaged and frozen rapidly under liquid nitrogen, and stored at −80° C. • 2. mPGES1 enzyme assay
mPGES1 was diluted with assay buffer and added into plate at 49 μL/well supplemented with 1 μL of compound (the final concentration of each compound at seven gradient concentrations was 10000 nM, 1000 nM, 100 nM, 10 nM, 1 nM, 0.1 nM and 0.01 nM). […] Then, each well was added with 53.8 μL of 6 mg/mL SnCl2 to quench the reaction. The sample was diluted with dilute buffer at 1:400. 10 μl of diluted sample, 5 μL PGE2-d2 and 5 μL anti-PGE2 Cryptate were added to a black 384-well plate, and incubated at 4° C. overnight. HTRF was determined using Flexstation, and the IC50 of the compounds was obtained by data processing software.
The inhibition activity of the present compounds on mPGES1 was tested by the assay described above.

Assay [2] deals with secretion of PGE2 by A549 cells stimulated with IL-1β. Kind of assay: Inhibition of the secretion of PGE2 by A549 cells stimulated with IL-1β. The format is cell-based. Particulars: IL-1β 0.2 ng/mL, 24 hours. The text has this: The method described here was used for determining the inhibition activity of the present compounds on the secretion of PGE2 by A549 cells stimulated with IL-1β.
• 1. PGE2 Assay kit (Cisbio, #62P2APEB) • 2. IL-1β (Peprotech, # AF-200-01B) • 3. Cell line: A549 (ATCC: CCL-185) • 4. FlexStation3 microplate reader. II. Experimental Procedure
On the first day, A549 cells were inoculated in a 96-well plate at 40000/well. On the second day, the culture medium in the 96-well plate was removed and then added with 90 μL of compound diluted with culture medium (the concentration of each compound at seven gradient concentrations was 11111 nM, […], 1.11 nM, 0.11 nM and 0.011 nM). The cells were incubated for 30 minutes at 37° C. in an incubator, and then added with IL-1β to a final concentration of 0.2 ng/mL. Then, the cells were incubated for another 24 hours at 37° C. On the third day, 10 μl of supernatant, 5 μL of PGE2-d2 and 5 μL of anti-PGE2 Cryptate were added into a black 384-well plate, and then incubated at 4° C. overnight. HTRF was determined using Flexstation, and the IC50 of the compounds was obtained by data processing software.
The inhibition activity of the present compounds on the secretion of PGE2 by A549 cells stimulated with IL-1β was determined by the assay described above.

Sequence of human mPGES1 (O14684 whole entry): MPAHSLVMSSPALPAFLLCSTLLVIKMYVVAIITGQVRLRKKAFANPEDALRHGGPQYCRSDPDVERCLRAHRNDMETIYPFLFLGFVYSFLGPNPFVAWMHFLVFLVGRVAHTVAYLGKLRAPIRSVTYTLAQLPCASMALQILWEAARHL

As usually defined, the IC50 is the concentration needed to halve the response being measured. On to `CCn1c(-c2ccc(C(F)(F)F)cc2)cc2cc(NC(=O)c3cc(CNC(=O)C(C)C)cnc3C(F)F)ccc21` [Example 1, 2-(difluoromethyl)-N-(1-ethyl-2-(4-(trifluoromethyl)phenyl)-1H-indol-5-yl)-5-((2-methylpropanoylamino)methyl)nicotinamide], for which the IC50 worked out at 8.26 nM in assay [1] and 3.55 nM in assay [2] (Homo sapiens, A549).

For the compound `CCn1c(-c2ccc(F)cc2)cc2cc(NC(=O)c3cc(CNC(=O)C(C)(C)C)ccc3Cl)cnc21` [Example 4, 2-Chloro-N-(1-ethyl-2-(4-fluorophenyl)-1H-pyrrolo[2,3-b]pyridin-5-yl)-5-((2,2-dimethylpropanoylamino)methyl)-benzamide], in assay [2] (Homo sapiens, A549), the IC50 turned out to be 26.9 nM.

On to `CCn1c(-c2ccc(F)cc2)cc2cc(NC(=O)c3cc(CNC(=O)C(C)C)cnc3C(F)F)ccc21` [Example 5, 2-(Difluoromethyl)-N-(1-ethyl-2-(4-fluorophenyl)-1H-indol-5-yl)-5-((2-methylpropanoylamino)methyl)nicotinamide], for which the half-maximal inhibitory concentration (IC50) in assay [1] is 22 nM; in assay [2] (Homo sapiens, A549) it was 12.4 nM.

In assay [2] (Homo sapiens, A549), `CCn1cc(-c2ccc(F)cc2)c2cc(NC(=O)c3cc(CNC(=O)C(C)(C)C)ccc3Br)ccc21` [Example 6, 2-Bromo-N-(1-ethyl-3-(4-fluorophenyl)-1H-indol-5-yl)-5-((2,2-dimethylpropanoylamino)methyl)-benzamide] gave a half-inhibitory concentration (IC50) of 68.1 nM.

Turning to `CCn1c(-c2ccc(F)cc2)cc2cc(NC(=O)c3cc(CNC(=O)C(C)(C)C)ccc3Br)ccc21` [Example 7, 2-Bromo-N-(1-ethyl-2-(4-fluorophenyl)-1H-indol-5-yl)5-((2,2-dimethylpropanoylamino)methyl)-benzamide], the half-inhibitory concentration (IC50) in assay [2] (Homo sapiens, A549) was found to be 10.4 nM.

On to `CC(C)C(=O)NCc1cnc(C(F)F)c(C(=O)Nc2ccc3c(c2)cc(-c2ccc(C(F)(F)F)cc2)n3C)c1` [Example 9, 2-(difluoromethyl)-N-(1-methyl-2-(4-(trifluoromethyl)phenyl)-1H-indol-5-yl)5-((2-methylpropanoylamino)methyl)-nicotinamide], for which the half-maximal inhibitory concentration (IC50) in assay [1] amounted to 15.6 nM; in assay [2] (Homo sapiens, A549) it was 11.8 nM.

`CCn1c(-c2ccc(Cl)cc2)cc2cc(NC(=O)c3cc(CNC(=O)C(C)C)cnc3C(F)F)ccc21` [Example 10, 2-(Difluoromethyl)-N-(1-ethyl-2-(4-chlorophenyl)-1H-indol-5-yl)-5-((2-methylpropanoylamino)methyl)nicotinamide]: the 50% inhibitory concentration (IC50) was 11.2 nM in assay [1] and 12.3 nM in assay [2] (Homo sapiens, A549).

Consider `CC(C)C(=O)NCc1cnc(C(F)F)c(C(=O)Nc2ccc3c(c2)cc(-c2ccc(Cl)cc2)n3C)c1` [Example 13, N-(2-(4-chlorophenyl)-1-methyl-1H-indol-5-yl)-2-(difluoromethyl)-5-((2-methylpropanoylamino)methyl)nicotinamide], for which the IC50 in assay [1] is 7.43 nM; in assay [2] (Homo sapiens, A549), 16.7 nM.

For `Cn1c(-c2ccc(C(F)(F)F)cc2)cc2cc(NC(=O)c3cc(CNC(=O)C(C)(C)F)cnc3C(F)F)ccc21` [Example 15, 2-(Difluoromethyl)-5-(((2-fluoro-2-methyl-propanoyl)amino)methyl)-N-(1-methyl-2-(4-(trifluoromethyl)phenyl)-1H-indol-5-yl)nicotinamide], the IC50 in assay [1] was found to be 23.4 nM; in assay [2] (Homo sapiens, A549), 33.3 nM.

With `CC(C)(C)C(=O)NCc1ccc(Cl)c(C(=O)Nc2ccc3nn(-c4ccc(Cl)cc4)cc3c2)c1` [Example 16, 2-Chloro-N-(2-(4-chlorophenyl)-2H-indazol-5-yl)-5-((2,2-dimethylpropanoylamino)methyl)benzamide], the 50% inhibitory concentration (IC50) in assay [1] was 9.31 nM; in assay [2] (Homo sapiens, A549) it was 26.2 nM.

Consider `Cn1c(-c2ccc(Cl)cc2)cc2cc(NC(=O)c3cc(CNC(=O)C(C)(C)F)cnc3C(F)F)ccc21` [Example 18, N-(2-(4-Chlorophenyl)-1-methyl-1H-indol-5-yl)-2-(difluoromethyl)-5-(((2-fluoro-2-methyl-propanoyl)amino)methyl)nicotinamide], for which the values for the IC50 in assay [1] and in assay [2] were 5.15 nM and 17.2 nM, respectively.

As to `CCn1c(-c2ccccc2Cl)cc2cc(NC(=O)c3cc(CNC(=O)C(C)(C)F)cnc3C(F)F)ccc21` [Example 19, N-(2-(2-Chlorophenyl)-1-ethyl-1H-indol-5-yl)-2-(difluoromethyl)-5-(((2-fluoro-2-methyl-propanoyl)amino)methyl)nicotinamide], the concentration for half-maximal inhibition (IC50) in assay [1] is 8.12 nM; in assay [2] (Homo sapiens, A549), 42.6 nM.

For `Cn1c(-c2ccc(Cl)cc2)cc2cc(NC(=O)c3cc(CNC(=O)C4(C(F)(F)F)CC4)cnc3C(F)F)ccc21` [Example 21, N-(2-(4-Chlorophenyl)-1-methyl-1H-indol-5-yl)-2-(difluoromethyl)-5-(((1-(trifluoromethyl)cyclopropanecarbonyl)amino)methyl)nicotinamide], the IC50 in assay [1] came to 8.24 nM; in assay [2] (Homo sapiens, A549), 57.4 nM.

For `CC(C)(C)C(=O)NCc1ccc(Cl)c(C(=O)Nc2ccc3oc(-c4ccc(C(F)(F)F)cc4)nc3c2)c1` [Example 22, 2-Chloro-5-((2,2-dimethylpropanoylamino)methyl)-N-(2-(4-(trifluoromethyl)phenyl)benzo[d]oxazol-5-yl)benzamide], the IC50 was 6.69 nM in assay [1] and 38.8 nM in assay [2] (Homo sapiens, A549).

As to `CC(C)(F)C(=O)NCc1cnc(C(F)F)c(C(=O)Nc2ccc3oc(-c4ccc(C(F)(F)F)cc4)nc3c2)c1` [Example 23, 2-(Difluoromethyl)-5-(((2-fluoro-2-methyl-propanoyl)amino)methyl)-N-(2-(4-(trifluoromethyl)phenyl)benzo[d]oxazol-5-yl)nicotinamide], the IC50 in assay [1] is 4.73 nM; in assay [2] (Homo sapiens, A549), 49 nM.

In the case of `CC(C)C(=O)NCc1cnc(C(F)F)c(C(=O)Nc2ccc3nn(-c4ccc(C(F)(F)F)cc4)cc3c2)c1` [Example 24, 2-(Difluoromethyl)-5-((2-methylpropanoylamino)methyl)-N-(2-(4-(trifluoromethyl)phenyl)-2H-indazol-5-yl)nicotinamide], the IC50 in assay [1] was determined as 17.2 nM; in assay [2] (Homo sapiens, A549), 45.6 nM.

Turning to `CC(C)(C)C(=O)NCc1ccc(Cl)c(C(=O)Nc2ccc3c(c2)CN(c2ccc(C(F)(F)F)cc2)C3)c1` [Example 25, 2-Chloro-5-((2,2-dimethylpropanoylamino)methyl)-N-(2-(4-(trifluoromethyl)phenyl)isoindolin-5-yl)benzamide], the IC50 in assay [1] came to 11.9 nM; in assay [2] (Homo sapiens, A549) it was 47.6 nM.

With `CC1(C(=O)NCc2ccc(Cl)c(C(=O)Nc3ccc4oc(-c5ccc(C(F)(F)F)cc5)nc4c3)c2)CC1` [Example 41, 2-Chloro-5-(((1-methylcyclopropanecarbonyl)amino)methyl)-N-(2-(4-(trifluoromethyl)phenyl)benzo[d]oxazol-5-yl)benzamide], in assay [1], inhibition was half-maximal at 25.6 nM (IC50).

`CCn1c(-c2ccc(Cl)cc2)cc2cc(NC(=O)c3cc(CNC(=O)C4(C)CC4)cnc3C(F)F)ccc21` [Example 42, N-(2-(4-Chlorophenyl)-1-ethyl-1H-indol-5-yl)-2-(difluoromethyl)-5-(((1-methylcyclopropanecarbonyl)amino)methyl)nicotinamide]: in assay [1], the IC50 was 7.21 nM.

`CCn1c(-c2ccc(Cl)cc2)nc2cc(NC(=O)c3cc(CNC(=O)C(C)(C)C)ccc3Cl)ccc21` [Example 52, 2-Chloro-N-(2-(4-chlorophenyl)-1-ethyl-1H-benzo[d]imidazol-5-yl)-5-((2,2-dimethylpropanoylamino)methyl)benzamide] yielded an IC50 in assay [2] (Homo sapiens, A549) of 55.2 nM.

Take `Cn1c(-c2ccc(Cl)cc2)nc2cc(NC(=O)c3cc(CNC(=O)C(C)(C)C)ccc3Cl)ccc21` [Example 55, 2-Chloro-N-(2-(4-chlorophenyl)-1-methyl-1H-benzo[d]imidazol-5-yl)-5-((2,2-dimethylpropanoylamino)methyl)benzamide]: inhibition in assay [1] was half-maximal at 29.8 nM (IC50).

For the origin of these results see patent US10081629B2, “Amide derivatives and pharmaceutically acceptable salts thereof, preparation method thereof and medicinal application thereof” (Shanghai Hengrui Pharmaceutical Co., Ltd., priority 2014, dated 2018).
